Data as given in US8575091B1, “Amylin analogues and pharmaceutical compositions thereof” (Novo Nordisk A/S, priority 2012, dated 2013).
Where two headings read alike, the source gives them in different places. Numbered stars: 1 amine (or outer) side, 2 acyl side, 3 side chain; on linkers, the order of the positions; unused ones are H or OH. Bridge positions count the residues as written; N and C are the ends. Side chains are listed from the residue outwards. Peptide text beside a SMILES is read from it. * marks the point of attachment. C20 diacid = O=C(O)CCCCCCCCCCCCCCCCCCC(=O)*; γGlu = O=C(O)[C@H](CCC(=O)[*:2])N[*:1]

Tests used:
[1] = molecular target: T1, human amylin receptor (amylin 3(a) receptor: human calcitonin receptor + RAMP-3) (Homo sapiens, UniProt O60896+P30988); assay: Assay (II)a functional assay, human amylin receptor (CRE luciferase, BHK cells); type: cell-based; details: for EC50: read-out: hAmylin-R funct. EC50
T1 construct: expressed in transfected cells
T1 sequence (P30988 25-474): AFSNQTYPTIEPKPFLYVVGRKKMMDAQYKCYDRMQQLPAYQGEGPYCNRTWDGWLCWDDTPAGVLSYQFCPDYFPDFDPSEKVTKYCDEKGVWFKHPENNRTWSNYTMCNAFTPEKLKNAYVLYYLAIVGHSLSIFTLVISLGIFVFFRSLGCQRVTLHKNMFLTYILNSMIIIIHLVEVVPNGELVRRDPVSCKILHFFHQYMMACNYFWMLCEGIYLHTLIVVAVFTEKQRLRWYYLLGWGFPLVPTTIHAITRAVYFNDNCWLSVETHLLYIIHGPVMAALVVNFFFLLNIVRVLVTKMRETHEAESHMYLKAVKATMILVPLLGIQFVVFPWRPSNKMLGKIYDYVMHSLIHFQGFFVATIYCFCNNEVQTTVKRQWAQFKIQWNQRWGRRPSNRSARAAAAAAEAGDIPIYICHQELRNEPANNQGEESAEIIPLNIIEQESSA
T1 sequence (O60896 24-148 partner): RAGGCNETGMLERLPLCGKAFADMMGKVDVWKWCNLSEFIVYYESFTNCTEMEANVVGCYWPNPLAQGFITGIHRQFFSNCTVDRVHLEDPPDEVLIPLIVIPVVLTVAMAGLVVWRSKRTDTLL
Description: Assay (II)—Functional Assays
Consequently, transcription is activated by promoters containing multiple copies of the cAMP response element (CRE).
The cell line was further transfected with RAMP-3, using standard methods.
After incubation overnight at 37° C. and 5% CO2, the growth medium was replaced by 50 μl/well assay medium (DMEM (without phenol red), Glutamax™, 10% FBS, and 10 mM Hepes, pH 7.4). Further, 50 μl/well of standard or sample in assay buffer were added. After 3 hours incubation at 37° C. and 5% CO2, the assay medium with standard or sample were removed and replaced by 100 μl/well PBS. Further, 100 μl/well LucLite™ was added. The plates were sealed and incubated at room temperature for 30 minutes. Finally, luminescence was measured on a TopCounter (Packard) in SPC (single photon counting) mode.

[2] = molecular target: T2, human calcitonin receptor (Homo sapiens, UniProt P30988); assay: Assay (II)a functional assay, human calcitonin receptor (CRE luciferase, BHK cells);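 also: luminescence from a CRE-driven luciferase reporter, read by single photon counting after cells were exposed to test samples for 3 h at 37 °C under 5% CO2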; type: cell-based; details: read-out: hCTR funct. EC50
T2 construct: expressed in transfected cells
T2 sequence (P30988 25-474): T1 sequence (P30988 25-474)

human amylin receptor = molecular target: T3, human amylin receptor (Homo sapiens, UniProt O60896+P30988); assay: Assay (V) binding to the human amylin receptor (SPA, 125I-rat amylin); details: for IC50: human amylin receptor membranes, SPA, read-out: hAmylin-R bind IC50
T3 construct: expressed in transfected cells
T3 sequence (P30988 25-474): T1 sequence (P30988 25-474)
T3 sequence (O60896 24-148 partner): T1 sequence (O60896 24-148 partner)
Outline: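 IC50, taken as receptor affinity, came from one-site binding competition analysis of scintillation proximity counts. Amylin 3(a)/CRE-luc cell membranes (35 ng/μL final) were mixed with SPA beads (0.05 mg/well) in 50 mM Hepes pH 7.4 containing CaCl2, MgCl2, 0.1% OA and 0.02% Tween20.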

rat amylin receptor = molecular target: T4, rat amylin receptor (Rattus norvegicus, UniProt P32214+Q9JJ73); assay: Assay (VI) binding to the rat amylin receptor; details: rCTR bind IC50 divided by rAmylin-R bind IC50
T4 construct: expressed in transfected cells; host or cells: BHK tk'ts 13 (transient, FuGENE 6), membranes
T4 sequence (P32214 25-479 isoform P32214-2 limits assumed): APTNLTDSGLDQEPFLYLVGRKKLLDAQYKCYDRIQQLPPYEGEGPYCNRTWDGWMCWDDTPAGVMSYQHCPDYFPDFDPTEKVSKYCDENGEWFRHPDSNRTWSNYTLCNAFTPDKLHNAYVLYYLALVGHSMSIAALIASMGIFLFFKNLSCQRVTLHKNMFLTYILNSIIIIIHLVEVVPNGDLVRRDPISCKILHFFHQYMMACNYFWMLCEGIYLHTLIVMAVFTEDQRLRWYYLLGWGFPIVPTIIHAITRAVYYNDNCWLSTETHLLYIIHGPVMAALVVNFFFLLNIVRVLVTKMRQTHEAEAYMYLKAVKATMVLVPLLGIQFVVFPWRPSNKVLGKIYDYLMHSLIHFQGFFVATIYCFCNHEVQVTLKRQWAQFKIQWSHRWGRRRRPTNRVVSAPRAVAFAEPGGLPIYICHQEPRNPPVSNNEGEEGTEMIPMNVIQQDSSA
T4 sequence (Q9JJ73 23-147 partner): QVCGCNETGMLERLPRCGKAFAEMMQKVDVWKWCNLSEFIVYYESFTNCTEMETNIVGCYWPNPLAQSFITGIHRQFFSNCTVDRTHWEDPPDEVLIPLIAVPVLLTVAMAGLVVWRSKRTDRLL
Description: Assay (VI)—Determination of the Binding to the Rat Amylin Receptor
The assay was performed as described above (Assay (V)—Determination of binding to the human amylin receptor) with the exception that we used membranes prepared from BHK tk'ts 13 cells that were transiently transfected with the rat calcitonin receptor rat RAMP 3 at an equimolar ratio […]. The BHK tk'ts 13 cells were transiently transfected with rat calcitonin receptor using FuGENE® 6 (Roche), according to the manufacturer's recommendations. Cells were grown in DMEM with 10% FBS and 1% Pen/Strep. Approximately 48 hours after transfection, the cells were harvested and membranes were prepared.

[3] = molecular target: T2, human calcitonin receptor; assay: Assay (VII) binding to the human calcitonin receptor (SPA, 125I-Calcitonin); details: read-out: hCTR bind IC50;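 also: cell membranes coupled to SPA beads, competitive displacement read by scintillation counting, IC50 derived from a one-site competition fit as a measure of receptor affinity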
[4] = Table 6, human functional selectivity (hCTR EC50 / hAmylin-R EC50)
[5] = functional assay, human amylin receptor
[6] = Table 6a, human functional selectivity (hCTR EC50 / hAmylin-R EC50), at least 5
[7] = Table 6j, hCTR funct. EC50 / hAmylin-R funct. EC50
[8] = Table 6k, hCTR funct. EC50 / hAmylin-R funct. EC50

SMILES	Ratio hCT/hAmylin funct. [1, 4]	EC50 [1, 5] [pM]	EC50 [2] [pM]	IC50 (human amylin receptor) [pM]	Ratio hCT/hAmylin binding (human amylin receptor; human binding ratio, included for comparison)	Ratio rCT/rAmylin binding (rat amylin receptor)	IC50 [3] [pM]	Ratio hCT/hAmylin funct. [1, 6]	Ratio hCT/hAmylin funct. [1, 7]	Ratio hCT/hAmylin funct. [1, 8]	Ratio rCT/rAmylin binding (rat amylin receptor; Table 7b)	Ratio hCT/hAmylin funct. ([1]; Table 6i, hCTR funct. EC50 / hAmylin-R funct. EC50)	EC50 ([1]; Table 6i, human amylin receptor functional) [pM]	EC50 ([1]; Table 6j, human amylin receptor functional) [pM]	Ratio rCT/rAmylin binding (rat amylin receptor; Table 7c)
CC[C@H](C)[C@H](NC(=O)[C@H](C)NC(=O)CNC(=O)[C@H](Cc1ccccc1)NC(=O)[C@H](CC(N)=O)NC(=O)[C@@H]1CCCN1C(=O)[C@H](CO)NC(=O)[C@H](CO)NC(=O)[C@H](Cc1c[nH]cn1)NC(=O)[C@H](CCCNC(=N)N)NC(=O)[C@H](CC(C)C)NC(=O)[C@H](Cc1ccccc1)NC(=O)[C@H](CCC(=O)O)NC(=O)[C@H](C)NC(=O)[C@H](CC(C)C)NC(=O)[C@H](CCCNC(=N)N)NC(=O)[C@H](CCC(N)=O)NC(=O)[C@@H](NC(=O)[C@H](C)NC(=O)[C@@H]1CSSC[C@H](NC(=O)[C@@H](N)CCCCNC(=O)CC[C@H](NC(=O)CCCCCCCCCCCCCCCCCCC(=O)O)C(=O)O)C(=O)N[C@@H](CC(N)=O)C(=O)N[C@@H]([C@@H](C)O)C(=O)N[C@@H](C)C(=O)N[C@@H]([C@@H](C)O)C(=O)N1)[C@@H](C)O)C(=O)N1CCC[C@H]1C(=O)N[C@@H](CO)C(=O)N[C@@H](CO)C(=O)N[C@H](C(=O)N[C@@H](CC(N)=O)C(=O)N[C@H](C(=O)NCC(=O)N[C@@H](CO)C(=O)N[C@@H](CC(N)=O)C(=O)N[C@H](C(=O)N1CCC[C@H]1C(N)=O)[C@@H](C)O)C(C)C)[C@@H](C)O [Example 12] (H-K([γGlu-C20 diacid])CNTATCATQRLAEFLRHSSPNFGAIPSSTNVGSNTP-NH2; disulfide 2-7)	1.8	101	185	142	2.5	5.0	353								
CC[C@H](C)[C@H](NC(=O)[C@H](C)NC(=O)CNC(=O)[C@H](Cc1ccccc1)NC(=O)[C@H](CC(N)=O)NC(=O)[C@@H]1CCCN1C(=O)[C@H](CO)NC(=O)[C@H](CO)NC(=O)[C@H](Cc1c[nH]cn1)NC(=O)[C@H](CCCNC(=N)N)NC(=O)[C@H](CC(C)C)NC(=O)[C@H](Cc1ccccc1)NC(=O)[C@H](CC(N)=O)NC(=O)[C@H](C)NC(=O)[C@H](CC(C)C)NC(=O)[C@H](CCCNC(=N)N)NC(=O)[C@H](CCC(N)=O)NC(=O)[C@@H](NC(=O)[C@H](C)NC(=O)[C@@H]1CSSC[C@H](NC(=O)[C@H](CCCCN)NC(=O)CC[C@H](NC(=O)CCCCCCCCCCCCCCCCCCC(=O)O)C(=O)O)C(=O)N[C@@H](CC(N)=O)C(=O)N[C@@H]([C@@H](C)O)C(=O)N[C@@H](C)C(=O)N[C@@H]([C@@H](C)O)C(=O)N1)[C@@H](C)O)C(=O)N1CCC[C@H]1C(=O)N[C@@H](CO)C(=O)N[C@@H](CO)C(=O)N[C@H](C(=O)N[C@@H](CC(N)=O)C(=O)N[C@H](C(=O)NCC(=O)N1CCC[C@H]1C(=O)N[C@@H](CCC(=O)O)C(=O)N[C@H](C(=O)N[C@@H](Cc1ccc(O)cc1)C(N)=O)[C@@H](C)O)C(C)C)[C@@H](C)O [Example 29] ({C20 diacid-γGlu}-KCNTATCATQRLANFLRHSSPNFGAIPSSTNVGPETY-NH2; disulfide 2-7)	8.7	99	857	577		67.0	8010	8.7	8.7	8.7	67.0				
CC[C@H](C)[C@H](NC(=O)[C@H](C)NC(=O)CNC(=O)[C@H](Cc1ccccc1)NC(=O)[C@H](CC(N)=O)NC(=O)[C@@H]1CCCN1C(=O)[C@H](CO)NC(=O)[C@H](CO)NC(=O)[C@H](Cc1c[nH]cn1)NC(=O)[C@H](CCCNC(=N)N)NC(=O)[C@H](CC(C)C)NC(=O)[C@H](Cc1ccccc1)NC(=O)[C@H](CCC(=O)O)NC(=O)[C@H](C)NC(=O)[C@H](CC(C)C)NC(=O)[C@H](CCCNC(=N)N)NC(=O)[C@H](CCC(N)=O)NC(=O)[C@@H](NC(=O)[C@H](C)NC(=O)[C@@H]1CSSC[C@H](NC(=O)[C@H](CCCCN)NC(=O)CC[C@H](NC(=O)CCCCCCCCCCCCCCCCCCC(=O)O)C(=O)O)C(=O)N[C@@H](CC(N)=O)C(=O)N[C@@H]([C@@H](C)O)C(=O)N[C@@H](C)C(=O)N[C@@H]([C@@H](C)O)C(=O)N1)[C@@H](C)O)C(=O)N1CCC[C@H]1C(=O)N[C@@H](CO)C(=O)N[C@@H](CO)C(=O)N[C@H](C(=O)N[C@@H](CC(N)=O)C(=O)N[C@H](C(=O)NCC(=O)N1CCC[C@H]1C(=O)N[C@@H](CC(N)=O)C(=O)N[C@H](C(=O)N[C@@H](Cc1ccc(O)cc1)C(N)=O)[C@@H](C)O)C(C)C)[C@@H](C)O [Example 32] ({C20 diacid-γGlu}-KCNTATCATQRLAEFLRHSSPNFGAIPSSTNVGPNTY-NH2; disulfide 2-7)	6.6		327	100		34.0	1090	6.6	6.6	6.6	34.0	6.6	50		
CC[C@H](C)[C@H](NC(=O)[C@H](C)NC(=O)CNC(=O)[C@H](Cc1ccccc1)NC(=O)[C@H](CC(N)=O)NC(=O)[C@@H]1CCCN1C(=O)[C@H](CO)NC(=O)[C@H](CO)NC(=O)[C@H](Cc1c[nH]cn1)NC(=O)[C@H](CCCNC(=N)N)NC(=O)[C@H](CC(C)C)NC(=O)[C@H](Cc1ccccc1)NC(=O)[C@H](CC(N)=O)NC(=O)[C@H](C)NC(=O)[C@H](CC(C)C)NC(=O)[C@H](CCCNC(=N)N)NC(=O)[C@H](CCC(N)=O)NC(=O)[C@@H](NC(=O)[C@H](C)NC(=O)[C@@H]1CSSC[C@H](NC(=O)[C@H](CCCCN)NC(=O)CC[C@H](NC(=O)CCCCCCCCCCCCCCCCCCC(=O)O)C(=O)O)C(=O)N[C@@H](CC(N)=O)C(=O)N[C@@H]([C@@H](C)O)C(=O)N[C@@H](C)C(=O)N[C@@H]([C@@H](C)O)C(=O)N1)[C@@H](C)O)C(=O)N1CCC[C@H]1C(=O)N[C@@H](CO)C(=O)N[C@@H](CO)C(=O)N[C@H](C(=O)N[C@@H](CC(N)=O)C(=O)N[C@H](C(=O)NCC(=O)N[C@@H](CO)C(=O)N[C@@H](CCCCN)C(=O)N[C@H](C(=O)N[C@@H](Cc1ccc(O)cc1)C(N)=O)[C@@H](C)O)C(C)C)[C@@H](C)O [Example 34]	8.4		2620	1140		52.0	73400	8.4	8.4	8.4	52.0			313	52.0
